Drawing on US20250197387A1, “BCL-XL DEGRADERS AND USES THEREOF” (Kymera Therapeutics, Inc., priority 2021, published 2025), this text covers Dmax, DC50 and IC50 for 22 molecules.

In general, Dmax refers to the greatest extent of degradation seen. What is called DC50 is the concentration at which degradation of the target reaches its halfway point. As a reminder, the IC50 is the point on the concentration scale where inhibition reaches its midpoint.

Holding throughout (type): cell-based
Test [1] concerns the target T1, BCL-XL (Homo sapiens, UniProt Q07817).
T1 construct: endogenous in cells; host or cells: MOLT-4
In words: Bcl-xL ELISA degradation in MOLT-4 cells, 6 h. To be noted: for DC50: read-out: Bcl-xL ELISA in MOLT-4 degradation 6 h: Mean external-Abs DC50. The protocol:
The letter codes for BCL-XL DC50 include: A (<0.01 μM); B (0.01-0.1 μM); C (>[…]); D (>0.5-1.0 μM); and E (>1.0 μM). The letter codes for Dmax % include A (>75%); B (50 to 75%); C (<50%).

Test [2] concerns Caki-2 cells. In words: CTG (CellTiter-Glo) cell viability assay, Caki-2. To be noted: Homo sapiens, 72 h, 3 day incubation, read-out: CTG Chempartner - Caki-2 3 day: Average external-IC50. An outline of the steps:
(§1)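 10,000 cells/well; 9 doses, 1:3 from 10 μM top; 0.2% DMSO; 3 d, 37 °C, 5% CO2; CTG luminescence; IC50 via 3-parameter logistic fit. Letter bins differ: Caki-2 C/D cut at 10.0 μM, MOLT-4 at 3.0 μM.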
Background: ATP-based viability assays read luminescence as a measure of living cells.

Test [3] has as its system MOLT-4 cells. Nature of the test: CTG (CellTiter-Glo) cell viability assay, MOLT-4. The settings on record: Homo sapiens, MOLT-4, 72 h, 3 day incubation, read-out: CTG Cell Viability Assay - MOLT-4 3 day: Average external-IC50. An outline of the steps:
as §1

T1 sequence (Q07817 whole entry): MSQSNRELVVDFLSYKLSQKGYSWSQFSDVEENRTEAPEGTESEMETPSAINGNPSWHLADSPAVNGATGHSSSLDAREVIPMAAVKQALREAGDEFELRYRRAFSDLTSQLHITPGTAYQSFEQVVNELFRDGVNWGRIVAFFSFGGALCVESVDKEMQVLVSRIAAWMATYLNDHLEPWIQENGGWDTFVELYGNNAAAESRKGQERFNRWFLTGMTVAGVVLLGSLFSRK

Regarding `C#Cc1ccc(CNC(=O)[C@@H]2C[C@@H](O)CN2C(=O)[C@@H](NC(=O)C2CN(CCS(=O)(=O)NC(=O)c3nc(N(C)c4cc(C)c(Nc5nc6ccccc6s5)nn4)ccc3-c3cnn(CC45CC6CC(CC(C6)C4)C5)c3C)C2)C(C)(C)C)cc1` [I-433], the Dmax in test [1] was > 75%. Moreover, the DC50 in test [1] was 100 to 500 nM. Besides, the IC50 in test [2] was > 10000 nM; in test [3], 100 to 1000 nM.

As for `Cc1ncsc1-c1ccc([C@H](C)NC(=O)[C@@H]2C[C@@H](O)CN2C(=O)[C@@H](NC(=O)C2CCN(c3ccc(S(=O)(=O)NC(=O)c4nc(N5CCc6cccc(C(=O)Nc7nc8ccccc8s7)c6C5)ccc4-c4cnn(CC5CCCCC5)c4C)cc3)C(=O)C2)C(C)(C)C)cc1` (stereo partly shown) [I-299], in test [1], the Dmax was > 75% and the DC50 fell in the range of 100 to 500 nM. For the same molecule, the IC50 in test [2] lay within 1000 to 10000 nM. Besides, the IC50 in test [3] lay within 100 to 1000 nM.

For `Cc1ncsc1-c1ccc([C@H](C)NC(=O)[C@@H]2C[C@@H](O)CN2C(=O)[C@@H](NC(=O)C2CCN(c3ccc(S(=O)(=O)NC(=O)c4nc(N5CCc6cccc(C(=O)Nc7nc8ccccc8s7)c6C5)ccc4-c4cnn(CC5CCCCC5)c4C)cc3F)CC2)C(C)(C)C)cc1` [I-328], in test [1], the Dmax was > 75% and the DC50 was 10 to 100 nM. Besides, the IC50 in test [2] is 1000 to 10000 nM. Besides, the IC50 in test [3] is < 100 nM.

On to `Cc1cc(N(C)c2ccc(-c3cnn(CC4CCCCC4)c3C)c(C(=O)NS(=O)(=O)CCCCCC(=O)N[C@H](C(=O)N3C[C@H](O)C[C@H]3C(=O)N[C@@H](C)c3ccc(-c4scnc4C)cc3)C(C)(C)C)n2)nnc1Nc1nc2cccnc2s1` [I-436], for which, in test [1], the Dmax was > 75% and the DC50 lay in the range of 500 to 1000 nM. The IC50 in test [2] was > 10000 nM. In addition, in test [3], the IC50 lay within 1000 to 3000 nM.

As to `Cc1ncsc1-c1ccc([C@H](C)NC(=O)[C@@H]2C[C@@H](O)CN2C(=O)[C@@H](NC(=O)C2CCCN(c3ccc(S(=O)(=O)NC(=O)c4nc(N5CCc6cccc(C(=O)Nc7nc8ccccc8s7)c6C5)ccc4-c4cnn(CC5CCCCC5)c4C)cc3)C2)C(C)(C)C)cc1` (stereo partly shown) [I-419], in test [1], the Dmax is > 75%. The DC50 in test [1] was < 10 nM. Further, the IC50 in test [2] was 1000 to 10000 nM; in test [3] it was < 100 nM.

Turning to `C#Cc1ccc(CNC(=O)[C@@H]2C[C@@H](O)CN2C(=O)[C@@H](NC(=O)CCCCCS(=O)(=O)NC(=O)c2nc(N3CCc4cccc(C(=O)Nc5nc6cccnc6s5)c4C3)ccc2-c2cnn(CC3CCCC3)c2C)C(C)(C)C)cc1` [I-445], the Dmax in test [1] is > 75%. The DC50 in test [1] lay in the range of 10 to 100 nM. Further, the figures for the IC50 in test [2] and in test [3] were > 10000 nM and 100 to 1000 nM, respectively.

Take `Cc1ncsc1-c1ccc([C@H](C)NC(=O)[C@@H]2C[C@H](O)CN2C(=O)[C@@H](NC(=O)CCc2ccc(S(=O)(=O)NC(=O)c3nc(N4CCc5cccc(C(=O)Nc6nc7ccccc7s6)c5C4)ccc3-c3cnn(CC4CCCCC4)c3C)cc2)C(C)(C)C)cc1` [I-285]: in test [1], the Dmax was in the range of 50 to 75% and the DC50 was in the range of 100 to 500 nM. Besides, the IC50 in test [2] was 1000 to 10000 nM. In test [3], the IC50 lay within 100 to 1000 nM.

Regarding `Cc1ncsc1-c1ccc([C@H](C)NC(=O)[C@@H]2C[C@@H](O)CN2C(=O)[C@@H](NC(=O)C#CC2CCN(S(=O)(=O)NC(=O)c3nc(N4CCc5cccc(C(=O)Nc6nc7ccccc7s6)c5C4)ccc3-c3cnn(CC4CCCCC4)c3C)CC2)C(C)(C)C)cc1` [I-420], in test [1], the Dmax was > 75% and the DC50 lay in the range of 10 to 100 nM. In addition, in test [2], the IC50 fell in the range of 1000 to 10000 nM. The IC50 in test [3] is < 100 nM.

As to `Cc1ncsc1-c1ccc([C@H](C)NC(=O)[C@@H]2C[C@@H](O)CN2C(=O)[C@@H](NC(=O)CCCc2ccc(S(=O)(=O)NCc3nc(N4CCc5cccc(C(=O)Nc6nc7ccccc7s6)c5C4)ccc3-c3cnn(CC4CCCCC4)c3C)cc2)C(C)(C)C)cc1` [I-307], in test [1], the Dmax is < 50% and the DC50 is > 1000 nM. In addition, in test [2], the IC50 was > 10000 nM. For the same molecule, in test [3], the IC50 lay within 1000 to 3000 nM.

For `Cc1ncsc1-c1ccc([C@H](C)NC(=O)[C@@H]2C[C@@H](O)CN2C(=O)[C@@H](NC(=O)C2CCN(c3cccc(S(=O)(=O)NC(=O)c4nc(N5CCc6cccc(C(=O)Nc7nc8ccccc8s7)c6C5)ccc4-c4cnn(CC5CCCCC5)c4C)c3)CC2)C(C)(C)C)cc1` [I-380], in test [1], the Dmax was > 75% and the DC50 is < 10 nM. Further, the IC50 in test [2] lay in the range of 1000 to 10000 nM. In addition, the IC50 in test [3] was < 100 nM.

For `C#Cc1ccc([C@H](CO)NC(=O)[C@@H]2C[C@@H](O)CN2C(=O)[C@@H](NC(=O)CCCCCS(=O)(=O)NC(=O)c2nc(N(C)c3cc(C)c(Nc4nc5ccccc5s4)nn3)ccc2-c2cnn(CC34CC5CC(CC(C5)C3)C4)c2C)C(C)(C)C)cc1` [I-474], the Dmax in test [1] is > 75%. The DC50 in test [1] is < 10 nM. Besides, the IC50 in test [2] was > 10000 nM; in test [3], < 100 nM.

Turning to `C#Cc1ccc([C@H](C)NC(=O)[C@@H]2C[C@@H](O)CN2C(=O)[C@@H](NC(=O)CCCCCS(=O)(=O)NC(=O)c2nc(N(C)c3cc(C)c(Nc4nc5cccnc5s4)nn3)ccc2-c2cnn(CC34CC5CC(CC(C5)C3)C4)c2C)C(C)(C)C)cc1` [I-447], in test [1], the Dmax is > 75% and the DC50 fell in the range of 10 to 100 nM. For the same molecule, the IC50 in test [2] was > 10000 nM. For the same molecule, the IC50 in test [3] was 100 to 1000 nM.

Turning to `Cc1cc(N(C)c2ccc(-c3cnn(CC45CC6CC(CC(C6)C4)C5)c3C)c(C(=O)NS(=O)(=O)CCCCCC(=O)N[C@H](C(=O)N3C[C@H](O)C[C@H]3C(=O)N[C@@H](C)c3ccc(-c4scnc4C)cc3)C(C)(C)C)n2)nnc1Nc1nc2ccccc2s1` [I-356], in test [1], the Dmax was > 75% and the DC50 is < 10 nM. Further, the IC50 in test [2] is > 10000 nM. Also, in test [3], the IC50 was < 100 nM.

`Cc1ncsc1-c1ccc([C@H](C)NC(=O)[C@@H]2C[C@@H](O)CN2C(=O)[C@@H](NC(=O)C2CCN(c3ccc(S(=O)(=O)NC(=O)c4nc(N5CCc6cccc(C(=O)Nc7nc8ccccc8s7)c6C5)ccc4-c4cnn(CC5CCCCC5)c4C)cc3CO)CC2)C(C)(C)C)cc1` [I-316]: in test [1], the Dmax is 50 to 75%. Besides, the DC50 in test [1] was in the range of 100 to 500 nM. The IC50 in test [2] is > 10000 nM; in test [3] it was 100 to 1000 nM.

In the case of `Cc1cc(N(C)c2ccc(-c3cnn(CC45CC6CC(CC(C6)C4)C5)c3C)c(C(=O)NS(=O)(=O)c3ccc(N4CC(C(=O)N[C@H](C(=O)N5C[C@H](O)C[C@H]5C(=O)NCc5ccc(-c6scnc6C)cc5)C(C)(C)C)C4)cc3)n2)nnc1Nc1nc2ccccc2s1` [I-437], the Dmax in test [1] was > 75%. For the same molecule, in test [1], the DC50 was 10 to 100 nM. Moreover, the values for the IC50 in test [2] and in test [3] were > 10000 nM and < 100 nM, respectively.

Regarding `Cc1ncsc1-c1ccc([C@H](C)NC(=O)[C@@H]2C[C@@H](O)CN2C(=O)[C@@H](NC(=O)CCCCS(=O)(=O)NC(=O)c2nc(N3CCc4cccc(C(=O)Nc5nc6ccccc6s5)c4C3)ccc2-c2cnn(CC3CCCCC3)c2C)C(C)(C)C)cc1` [I-317], the Dmax in test [1] is > 75%. The DC50 in test [1] is 10 to 100 nM. In addition, the IC50 in test [2] fell in the range of 1000 to 10000 nM; in test [3] it was 100 to 1000 nM.

Regarding `Cc1ncsc1-c1ccc([C@H](C)NC(=O)[C@@H]2C[C@@H](O)CN2C(=O)[C@@H](NC(=O)C2CN(c3ccc(S(=O)(=O)NC(=O)c4nc(N5CCc6cccc(C(=O)Nc7nc8ccccc8s7)c6C5)ccc4-c4cnn(CC5CCCCC5)c4C)cc3)C2)C(C)(C)C)cc1` [I-343], the Dmax in test [1] is > 75%. In addition, the DC50 in test [1] was 10 to 100 nM. Further, the IC50 was 1000 to 10000 nM in test [2] and < 100 nM in test [3].

For the molecule `Cc1ncsc1-c1ccc([C@H](C)NC(=O)[C@@H]2C[C@@H](O)CN2C(=O)[C@H](NC(=O)CCCCCCCS(=O)(=O)NC(=O)c2nc(N3CCc4cccc(C(=O)Nc5nc6ccccc6s5)c4C3)ccc2-c2cnn(CC34CC5CC(CC(C5)C3)C4)c2C)C(C)(C)C)cc1` [I-284], in test [1], the Dmax was > 75% and the DC50 was < 10 nM. In test [2], the IC50 is 100 to 1000 nM. Also, in test [3], the IC50 was < 100 nM.

For the molecule `Cc1c(-c2ccc(N3CCc4cccc(C(=O)Nc5nc6ccccc6s5)c4C3)nc2C(=O)NS(=O)(=O)CCCCCc2ccc3c(c2)n(C)c(=O)n3C2CCC(=O)NC2=O)cnn1CC1CCCCC1` (stereo not shown) [I-425], in test [1], the Dmax was > 75% and the DC50 is < 10 nM. The IC50 in test [2] was in the range of 1000 to 10000 nM. Also, in test [3], the IC50 was < 100 nM.

In the case of `Cc1cc(N(C)c2ccc(-c3cnn(CC45CC6CC(CC(C6)C4)C5)c3C)c(C(=O)NS(=O)(=O)CCCCCC(=O)N[C@H](C(=O)N3C[C@H](O)C[C@H]3C(=O)N[C@H](C)c3ccc4c(c3)c(C)nn4C)C(C)(C)C)n2)nnc1Nc1nc2ccccc2s1` (single isomer, unassigned) [I-492], in test [1], the Dmax was > 75% and the DC50 is 10 to 100 nM. Moreover, in test [2], the IC50 is > 10000 nM. The IC50 in test [3] is 100 to 1000 nM.

In the case of `C#Cc1ccc([C@H](C)NC(=O)[C@@H]2C[C@@H](O)CN2C(=O)[C@@H](NC(=O)CCCCCS(=O)(=O)NC(=O)c2nc(N3CCc4cccc(C(=O)Nc5nc6cccnc6s5)c4C3)ccc2-c2cnn(CC3CCCCC3)c2C)C(C)(C)C)c(OCCO)c1` [I-480], the Dmax in test [1] was > 75%. In addition, the DC50 in test [1] was < 10 nM. For the same molecule, the IC50 was > 10000 nM in test [2] and < 100 nM in test [3].

Regarding `C#Cc1ccc([C@H](C)NC(=O)[C@@H]2C[C@@H](O)CN2C(=O)[C@@H](NC(=O)CCCCCS(=O)(=O)NC(=O)c2nc(N(C)c3cc(C)c(Nc4nc5ccccc5s4)nn3)ccc2-c2cnn(CC(C)(C)C)c2C)C(C)(C)C)cc1` [I-473], in test [1], the Dmax is > 75% and the DC50 was in the range of 500 to 1000 nM. In addition, the IC50 in test [2] is > 10000 nM. The IC50 in test [3] was in the range of 1000 to 3000 nM.
